Reference: patent publication US20180071354A1, “SELECTIVE BREEDING METHOD OF ANTITUMOR/ANTICANCER CAMELLIA SINENSIS STRAIN, AND TEA PRODUCT OF SUCH STRAIN” (FUJIAN AGRICULTURE AND FORESTRY UNIVERSITY, priority 2015, published 2018)
Converted amounts (≈) assume the structure as drawn.

Experiments:
[1] = test system: human liver cancer cell line HepG2; assay: In vitro antitumor/anticancer testing (CCK-8), HepG2; type: cell-based; settings: 48 h
Description: Each of Tea Product 1 and Conventional Tea Product obtained in section A of this example was used to prepare test tea samples according to the method described below. A proper amount of the respective tea product was added into sterile water to prepare a stock solution with a concentration of 100 mg/mL, followed by using a membrane filter with a pore size of 0.22 μm to conduct vacuum filtration and sterilization. The resulting stock solution was diluted with a respective complete medium shown in Table 3 below to form test tea samples with different concentrations. In other words, the thus obtained test tea samples to be used for treating a respective cancer/tumor cell line shown in Table 3 were prepared using the same complete medium as that for the respective cancer/tumor cell line.
Specifically, each of the aforesaid commercially available agents was subjected to the method described below to prepare comparative test samples. A proper amount of a respective commercially available agent was dissolved in phosphate-buffered saline (PBS) to prepare a stock solution with a concentration of 5 mg/mL, followed by using a membrane filter with a pore size of 0.22 μm to conduct vacuum filtration and sterilization. The resulting stock solution was diluted with a respective complete medium shown in Table 3 below to form comparative test samples with different concentrations. To be specific, the comparative test samples prepared from the respective commercially available agent have the concentrations shown in Table 2 below. The thus obtained comparative test samples to be used for treating a respective cancer/tumor cell line shown in Table 3 were prepared using the same complete medium as that for the respective cancer/tumor cell line.
The following cancer/tumor cells purchased from Chinese Academy of Sciences, Shanghai Institutes for Biological Sciences, Institute of Biochemistry and Cell Biology were used for in vitro antitumor/anticancer testing: human liver cancer cell line HepG2, human ovarian cancer cell line SK-OV-3, human cervical cancer cell line Hela, human lung cancer cell line A549, human glioblastoma cell line U-87MG, human mammary gland/duct cancer cell line BT-474, human prostate cancer cell line PC-3, human leukemia cell line HL-60, human gastric cancer cell line SMMC-7721, human colon cancer cell line HCT-116, human squamous cell carcinoma cell line A431, human leukemia cell line K562, human pancreatic cancer cell line PANC-1, and human gastric cancer cell line BGC-823.
The cultivation of each cancer/tumor cell line is described as follows. The cancer/tumor cancer cells were cultivated in the respective complete medium supplemented with 100 μg/mL penicillin and 100 μg/mL streptomycin in an incubator (37° C., 100% relative humidity, 5% CO2). When adherent cancer/tumor cells reached 80% confluence during the log-phase, cell detachment was conducted using 0.6 mL of 0.3% trypsin. Afterwards, a cell suspension having a cell density of 1.0×10^4 cells/mL was prepared. 100 μL of the cell suspension (i.e. 1000 cancer/tumor cells) was added into wells of a 96-well plate (Cat. No. 3599, Corning Costar), followed by cultivation in an incubator (37° C., 100% relative humidity, 5% CO2) for 24 hours.
As experimental groups, the tumor/cancer cells of each cell line were treated with the test tea samples prepared from one or more of the tea products and the comparative test samples prepared from one or more of the commercially available agents as obtained in section B of this example (for more detailed information about the tea product(s) and the commercially available product (s) used to treat each cell line, please see Table 4 below). To be specific, 6 to 10 test tea samples prepared from the same tea product and having different concentrations, as well as 6 to 10 comparative test samples prepared from the same commercially available agent and having different concentrations, were utilized to treat the tumor/cancer cells of each cell line. […]

[2] = test system: human ovarian cancer cell line SK-OV-3; assay: In vitro antitumor/anticancer testing (CCK-8), SK-OV-3; type: cell-based; settings: 48 h
Description: Each of Tea Product 1 and Conventional Tea Product obtained in section A of this example was used to prepare test tea samples according to the method described below. A proper amount of the respective tea product was added into sterile water to prepare a stock solution with a concentration of 100 mg/mL, followed by using a membrane filter with a pore size of 0.22 μm to conduct vacuum filtration and sterilization. The resulting stock solution was diluted with a respective complete medium shown in Table 3 below to form test tea samples with different concentrations. In other words, the thus obtained test tea samples to be used for treating a respective cancer/tumor cell line shown in Table 3 were prepared using the same complete medium as that for the respective cancer/tumor cell line. […] Specifically, each of the aforesaid commercially available agents was subjected to the method described below to prepare comparative test samples. A proper amount of a respective commercially available agent was dissolved in phosphate-buffered saline (PBS) to prepare a stock solution with a concentration of 5 mg/mL, followed by using a membrane filter with a pore size of 0.22 μm to conduct vacuum filtration and sterilization. The resulting stock solution was diluted with a respective complete medium shown in Table 3 below to form comparative test samples with different concentrations. To be specific, the comparative test samples prepared from the respective commercially available agent have the concentrations shown in Table 2 below. The thus obtained comparative test samples to be used for treating a respective cancer/tumor cell line shown in Table 3 were prepared using the same complete medium as that for the respective cancer/tumor cell line. […] The cultivation of each cancer/tumor cell line is described as follows. […] Afterwards, a cell suspension having a cell density of 1.0×10^4 cells/mL was prepared. […] As experimental groups, the tumor/cancer cells of each cell line were treated with the test tea samples prepared from one or more of the tea products and the comparative test samples prepared from one or more of the commercially available agents as obtained in section B of this example (for more detailed information about the tea product(s) and the commercially available product (s) used to treat each cell line, please see Table 4 below). To be specific, 6 to 10 test tea samples prepared from the same tea product and having different concentrations, as well as 6 to 10 comparative test samples prepared from the same commercially available agent and having different concentrations, were utilized to treat the tumor/cancer cells of each cell line. For each experimental group, 6 repetitions of tumor/cancer treatment were performed. For the control group, 100 μL of PBS was added to a well containing the medium and the cancer/tumor cells of the respective cell line. For the blank group, 100 μL of PBS was added to a well containing a complete medium the same as that used for cultivation of the cancer/tumor cells of the respective cell line. After the treatment described above, cultivation was conducted in an incubator (37° C., 100% relative humidity, 5% CO2) for 48 hours. Subsequently, the liquid containing the medium and the sample in the well was removed, and a respective complete medium (shown in Table 3 above) containing 10% CCK-8 (Cell Counting Kit-8)(Dojindo Molecular Technologies, Inc., Cat. No. CK04-13) was added. Cultivation was performed in an incubator (37° C.) for 2 to 4 hours, followed by gently shaking.

| IC50 ([1]; Table 5 concentration series) | IC50 ([2]; SK-OV-3) | SMILES | inhibition at 0.078125 µg/mL ([1]; 0.078125 μg/mL, read-out: Percent growth inhibition) | inhibition at 0.15625 µg/mL ([1]; 0.15625 μg/mL, read-out: Percent growth inhibition) | inhibition at 0.3125 µg/mL ([1]; 0.3125 μg/mL, read-out: Percent growth inhibition) | inhibition at 0.625 µg/mL ([1]; 0.625 μg/mL, read-out: Percent growth inhibition) | inhibition at 1.25 µg/mL ([1]; 1.25 μg/mL, read-out: Percent growth inhibition) | inhibition at 2.5 µg/mL ([1]; 2.5 μg/mL, read-out: Percent growth inhibition) | inhibition at 5 µg/mL ([1]; 5 μg/mL, read-out: Percent growth inhibition) | Percent growth inhibition ([2]; 0.3125 μg/mL) | Percent growth inhibition ([2]; 0.625 μg/mL) | Percent growth inhibition ([2]; 1.25 μg/mL) | Percent growth inhibition ([2]; 2.5 μg/mL) | Percent growth inhibition ([2]; 5 μg/mL) | Percent growth inhibition ([2]; 10 μg/mL) | Percent growth inhibition ([2]; 20 μg/mL) | Percent growth inhibition ([2]; 40 μg/mL) | Percent growth inhibition ([2]; 80 μg/mL) |
| --- | --- | --- | --- | --- | --- | --- | --- | --- | --- | --- | --- | --- | --- | --- | --- | --- | --- | --- |
| 0.457 µg/mL (≈ 3.52 µM) |  | O=c1[nH]cc(F)c(=O)[nH]1 [5-fluorouracil] | 10.9% | 24.5% | 37.5% | 63.7% | 83.3% | 86% | 89.1% |  |  |  |  |  |  |  |  |  |
|  | IC50 (μg/mL) = 24.05 | O=C(O[C@@H]1Cc2c(O)cc(O)cc2O[C@@H]1c1cc(O)c(O)c(O)c1)c1cc(O)c(O)c(O)c1 [EGCG monomer, epigallocatechin gallate] |  |  |  |  |  |  |  | 2.20% | 3.98% | 3.64% | 5.54% | 6.15% | 4.47% | 36.88% | 81.73% | 99.42% |
